Key:
[1] = biological target: bovine serum albumin (BSA) (Bos taurus, UniProt P02769); assay: Protein interaction by fluorescence quenching, Stern–Volmer binding constant; settings: for Extent of binding with BSA, in words: fluorescence quenching, 10 µM BSA, pH 7.4, 25 °C; for Binding Constant, BSA: slope of Stern–Volmer plot (Io/I vs macrocycle concentration), 10 µM BSA in phosphate buffer pH 7.4, 2–100 µM macrocycle from 2 mM DMSO stock, 25 °C, excitation 280 nm, 3 min equilibration
Method: (§1) All the fluorescence spectra were recorded on a Perkin Elmer (Waltham, MA, USA) FL 6500 at 25 °C. The excitation wavelength of 280 nm and a slit width of 5 nm were used for excitation and emission. Next, 6.6 mg of BSA/HSA was dissolved in 10 mL of pH 7.4 phosphate buffer to make 10 μM BSA/HSA. The stock solutions of macrocycles were of 2 mM concentration dissolved in DMSO. The titrations were carried out in varied concentrations of macrocycles from 2 μM to 100 μM. Three minutes were given as the equilibration time after the addition of the solution. The Stern–Volmer plot was used to calculate the binding constant (slope) by plotting Io/I vs. the macrocycle concentration.
(§2) Figure 4 Fluorescence quenching of protein by MC7 at excitation wavelength 280 nm, (a) BSA and (b) HSA. To 10 µM protein solution in phosphate buffer (pH 7.4), 2–100 µM macrocycle solution was added at 25 °C. Inset: Stern–Volmer Plot; Io and I are the fluorescence intensity at 0 µM and the given concentration of the macrocycle, and the slope is considered as the binding constant. […]
(§3) 8.2 Fluorescence spectroscopy for protein interaction studies
(§4) 8.2.1 Experimental Procedure
(§5) 10 μM BSA was prepared by dissolving 6.6 mg of BSA in 10 mL of phosphate buffer of pH
(§6) 7.4. The macrocycles were dissolved in DMSO to make the stock solution of 2 mM concentration. 2 mL of the BSA control solution was taken in the fluorescence cuvette to take the emission at zero concentration of the compound. The titration was carried out by varying the concentration of macrocycle from 2 μM to 100 μM. An equilibration time of 3 minutes is given for each measurement after the addition of the solution. Binding constant were estimated from the Stern-Volmer plot by plotting I o/I vs concentration of the macrocycle. The slope of the graph was attributed as the binding constant.

[2] = biological target: human serum albumin (HSA) (Homo sapiens, UniProt P02768); assay: as above; settings: for Binding Constant, HSA: slope of Stern–Volmer plot (Io/I vs macrocycle concentration), 10 µM HSA in phosphate buffer pH 7.4, 2–100 µM macrocycle from 2 mM DMSO stock, 25 °C, excitation 280 nm, 3 min equilibration; for Extent of interaction with HSA, in words: fluorescence quenching, 10 µM HSA, pH 7.4, 25 °C
Method: as §1, §2, §3, §4, §5, §6

[3] = RP-HPLC retention time as measure of hydrophilicity/hydrophobicity; format: physicochemical; settings: chromatographic, C18; acetonitrile and water with 0.1% formic acid, 5–95 % acetonitrile over 15 min; higher retention time = more hydrophobic
From the text: The bulk properties of the macrocycles depend on the functional groups on the side chain and backbone and the ring size. The platform for the tunability in the macrocyclic scaffold aided in the synthesis of molecules with a wide range of properties. The hydrophilicity/hydrophobicity of the macrocycles is an important property, primarily for biological applications. The tunable property of the synthesized macrocycles is attributed to the different retention times in the reverse-phase high-performance liquid chromatogram (RP-HPLC). Hydrophilic compounds elute first through the column, thus lowering the retention time, whereas a higher retention time corresponds to the comparatively hydrophobic compounds. From Figure 3a, it could be inferred that the macrocycles MC1–5 and MC7 are hydrophilic, whereas MC8 and MC6 are hydrophobic, as depicted by the higher retention times. The higher hydrophobicity is due to the aromatic rings, two benzyl groups in MC6 and a naphthyl group in MC8. Another property achieved by one of the macrocycles is the addition of fluorophoric group as the side chain. The resultant fluorescence could be exploited for various photophysical applications, including the development of fluorimetric sensors (Figure 3b).
A Shimadzu (Kyoto, Japan) LC-MS-8045 with a Sprite TARGA C18 column (40 × 2.1 mm, 5 µm) was used for the LC-MS analysis. The spectra were monitored at 254 nm and 210 nm with a positive mode for mass detection. Water and acetonitrile with 0.1% formic acid were used as eluting solvents A and B. […] HRMS was carried out in a Bruker, Maxis Impact and Waters (Billerica, MA, USA) ACQUITY H-CLASS + UPLC/XevoG2 XS QTOF instrument. A 500 MHz Bruker AV III was used to record the ^1H NMR spectrum. The data were analyzed by MestReNova (version 8.1.1). ^1H NMR shifts are reported in units of ppm relative to tetramethyl silane. […]
Figure 3 Properties of the macrocycles. […] Fluorescence spectrum of 10 μM MC8 in methanol upon excitation with a wavelength of 278 nm.

Chain of human serum albumin (HSA) (P02768 25-609): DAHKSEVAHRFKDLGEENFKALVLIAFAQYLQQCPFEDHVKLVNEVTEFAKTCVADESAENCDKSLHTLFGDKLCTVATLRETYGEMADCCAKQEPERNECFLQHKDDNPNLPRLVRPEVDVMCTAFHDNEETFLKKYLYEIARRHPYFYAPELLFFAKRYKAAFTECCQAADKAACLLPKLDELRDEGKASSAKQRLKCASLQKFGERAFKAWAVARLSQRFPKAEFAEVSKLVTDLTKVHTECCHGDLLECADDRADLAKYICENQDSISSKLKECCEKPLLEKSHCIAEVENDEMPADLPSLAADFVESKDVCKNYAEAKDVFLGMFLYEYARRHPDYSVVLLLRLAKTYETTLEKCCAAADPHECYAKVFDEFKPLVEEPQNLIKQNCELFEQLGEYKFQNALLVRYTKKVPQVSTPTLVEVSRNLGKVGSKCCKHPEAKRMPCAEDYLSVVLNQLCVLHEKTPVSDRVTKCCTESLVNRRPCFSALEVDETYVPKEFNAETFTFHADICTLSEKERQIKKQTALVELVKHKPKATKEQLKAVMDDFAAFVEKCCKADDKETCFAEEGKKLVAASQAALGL
Chain of bovine serum albumin (BSA) (P02769 25-607): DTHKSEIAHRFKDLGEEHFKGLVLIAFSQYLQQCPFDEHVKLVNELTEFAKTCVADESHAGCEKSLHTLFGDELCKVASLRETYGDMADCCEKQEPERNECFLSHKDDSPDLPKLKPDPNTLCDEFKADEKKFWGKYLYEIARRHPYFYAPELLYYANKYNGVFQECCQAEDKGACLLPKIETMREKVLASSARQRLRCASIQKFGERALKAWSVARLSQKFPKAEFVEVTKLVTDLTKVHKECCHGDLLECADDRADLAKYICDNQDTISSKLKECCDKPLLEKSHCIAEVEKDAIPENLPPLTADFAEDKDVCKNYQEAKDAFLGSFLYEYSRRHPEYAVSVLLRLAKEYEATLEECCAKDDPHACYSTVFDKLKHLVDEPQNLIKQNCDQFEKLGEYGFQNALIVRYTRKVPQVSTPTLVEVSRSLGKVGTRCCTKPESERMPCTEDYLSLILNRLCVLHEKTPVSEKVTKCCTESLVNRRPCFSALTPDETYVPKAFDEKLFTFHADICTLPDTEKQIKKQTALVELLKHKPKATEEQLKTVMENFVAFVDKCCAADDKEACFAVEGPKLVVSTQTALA

Row | Extent of binding with BSA, in words [1] | Binding Constant, BSA [1] [M⁻¹] | Binding Constant, HSA [2] [M⁻¹] | Extent of interaction with HSA, in words [2] | Hydrophilicity/hydrophobicity inferred from RP-HPLC retention time [3] | SMILES
1 | moderate binding | 4600 | 4200 |  |  | CCCN1CCOCc2cn(nn2)CCNCCn2cc(nn2)C1 [MC1]
2 | moderate binding | 4000 | 4400 |  |  | CC(C)N1CCOCc2cn(nn2)CCNCCn2cc(nn2)C1 [MC2]
3 | moderate binding | 4200 | 3500 |  |  | c1c2nnn1CCNCCn1cc(nn1)CN(C1CCCCC1)CCOC2 [MC3]
4 | moderate binding | 9100 | 8400 | greater extent of interaction |  | CCN(CC)C(=O)CN1CCOCc2cn(nn2)CCNCCn2cc(nn2)C1 [MC4]
5 | negligible binding | 1400 | 3200 |  |  | CN1CCN(C)Cc2cn(nn2)CCNCCn2cc(nn2)C1 [MC5]
6 | negligible binding | 800 | 930 | lowest | hydrophobic | c1ccc(CN2CCN(Cc3ccccc3)Cc3cn(nn3)CCNCCn3cc(nn3)C2)cc1 [MC6]
7 | highest binding | 27100 | 15800 | highest interaction and quenching | hydrophilic | c1c2nnn1CCNCCn1cc(nn1)COCCCCCCCCCCCCOC2 [MC7]
8 |  |  |  |  | hydrophobic | c1ccc2cc(CN3CCOCc4cn(nn4)CCNCCn4cc(nn4)COCC3)ccc2c1 [MC8]

Reference: paper PMC9182012, “Aza-Oxa-Triazole Based Macrocycles with Tunable Properties: Design, Synthesis, and Bioactivity” (Molecules, 2022)
